Assay results as given in patent US4612318A, “CNS-depressant and analgesic tricyclo-[pyrazolo-[3,4-6]-pyridine] derivatives and pharmaceutical compositions thereof” (Gruppo Lepetit S.p.A., priority 1982, dated 1986).

Assays:
[1] = test system: writhing in mice; pain due to compression of oedema paws in rats; assay: analgesic activity in both tests (writhing test in mice and pain relief test in rats); assay type: in vivo
Text: The analgesic activity of the compounds of the present invention was ascertained by means of two known tests for analgesia: the "writhing test" in mice, described by L.C. Hendershot and J. Forsaith, in J. Pharm. Exp. Therap. 125, 237, (1959), and the "pain relief test" in rats described by L. O. Randall and J. J. Selitto, in Arch. Int. Pharmacodyn. 111, 409, (1957). In the former the disappearance or the reduction of writhing in mice, intraperitoneally administered, with p-phenylquinone--a substance known to produce pain especially in the place of injection--is evaluated; the latter test is used to evaluate the ratio of relief from the pain due to compression of oedema paws in rats orally administered with the test compound.

[2] = test system: secondary conditioned response (CR2), primary conditioned response (CR) and unconditioned response (UR) of rats; assay: "pole climbing avoidance test" (anti-anxiety activity); assay type: in vivo; conditions: i.p., about 3 to about 60 mg/kg, groups of ten rats
Text: The anti-anxiety activity of the compounds of the invention was investigated by means of the "pole climbing avoidance test", performed essentially as described by G. Maffii, in Journ. Pharm. Pharmacol., 11 129, (1959). A conditioned animal, generally rat, is deconditioned, i.e. is brought to its normal pyschic behaviour, by administration of a suitable amount of the compound to be tested. According to the authors, an inhibition of the secondary conditioned response (CR2) without a contemporary or coupled with a not significant inhibition of the primary conditioned response (CR) and the unconditioned response (UR) is a clear indication of an anti-anxiety effect since these last two parameters are connected with sedative and hypnotic properties.

[3] = test system: writhing in mice intraperitoneally administered with p-phenylquinone; assay: "writhing test" (p-phenylquinone) for analgesia; assay type: in vivo
Procedure: (§1) Hendershot and J. Forsaith, in J. Pharm. Exp. Therap. […] Int. Pharmacodyn. […] In the former the disappearance or the reduction of writhing in mice, intraperitoneally administered, with p-phenylquinone--a substance known to produce pain especially in the place of injection--is evaluated; the latter test is used to evaluate the ratio of relief from the pain due to compression of oedema paws in rats orally administered with the test compound.

[4] = test system: pain due to compression of oedema paws in rats; assay: "pain relief test" (compression of oedema paws) for analgesia; assay type: in vivo
Procedure: as §1

[5] = acute toxicity (LD50) in mice; conditions: mouse, in vivo, po; orally administered mice
[6] = acute toxicity (LD50) in rats; conditions: rat, in vivo, po; orally administered rats

## Cc1nn(C)c2ncc3c(c12)CCC3 [Example 55]
[1]
  analgesic activity in these tests (in words): good activity

## CCCCOc1nc2c(c(C)nn2C)c2c1CCCC2 [Example 27]
[2]
  influence on the CR and the UR (in words): no practical influence

## Cc1nn(C)c2[nH]c(=O)c3c(c12)CCCC3 [Example 18, 6,7,8,9-Tetrahydro-1,3-dimethyl-3H-pyrazolo[3,4-c]isoquinoline-5(4H)-one]
[2]
  influence on the CR and the UR (in words): no practical influence

## Cc1nn(C)c2ncc3c(c12)CCCC3 [Example 57]
[3]; 10 mg/kg per os
  percent of inhibition of writhings: 25%
[3]; 20 mg/kg per os
  percent of inhibition of writhings: 51%
[3]; 50 mg/kg per os
  percent of inhibition of writhings: 89%
[3]; writhing test, per os
  potency ratio co. 57:ASA: 6.6
[4]; 20 mg/kg per os
  percent of increase of the pain threshold: 78%
[4]; 50 mg/kg per os
  percent of increase of the pain threshold: 115%
[4]; 100 mg/kg per os
  percent of increase of the pain threshold: 172%
[4]; pain relief test, per os
  potency ratio co. 57:ASA: 2.6
[1]
  analgesic activity in these tests (in words): highly effective
[5]
  LD50: > 1000 mg/kg
[6]
  LD50: 650 mg/kg

## Cc1nn(C)c2c1c1c(c(=O)n2CCN2CCN(C)CC2)CCCC1 [Example 45]
[2]
  influence on the CR and the UR (in words): no practical influence

## Cc1nn(C)c(N)c1C1=CCN(C)CC1 [Example 1, 4-(1,2,5,6-tetrahydro-1-methyl-4-pyridinyl)-1,3-dimethyl 5-(1H)-pyrazolamine]
[2]
  influence on the CR and the UR (in words): no practical influence

## Cc1nn(C)c2c1c1c(c(=O)n2CCN2CCN(c3ccccc3)CC2)CCC1 [Example 40]
[2]
  influence on the CR and the UR (in words): no practical influence

## Cc1nn(C)c2nc(OCCO)c3c(c12)CCCC3 [Example 28]
[2]
  influence on the CR and the UR (in words): no practical influence

## CC(=O)Oc1ccccc1C(=O)O [ASA, acetylsalicylic acid, reference compound]
[3]; 20 mg/kg per os
  percent of inhibition of writhings: 10%
[3]; 50 mg/kg per os
  percent of inhibition of writhings: 57%
[3]; 100 mg/kg per os
  percent of inhibition of writhings: 86%
[4]; 50 mg/kg per os
  percent of increase of the pain threshold: 39%
[4]; 100 mg/kg per os
  percent of increase of the pain threshold: 84%
[4]; 300 mg/kg per os
  percent of increase of the pain threshold: 109%

## CCC(=O)N1CC=C(c2c(C)nn(C)c2N)CC1 [Example 8]
[2]
  influence on the CR and the UR (in words): no practical influence

## CCN(CC)CCn1c(=O)c2c(c3c(C)nn(C)c31)CCC2 [Example 39]
[1]
  analgesic activity in these tests (in words): good activity
